Patent publication US10654834B2 (Venenum Biodesign, LLC, priority 2016, dated 2020)

Tests used:
[1] = target: T1, human TGR5 receptor (Homo sapiens, UniProt Q8TDU6); experiment: Human TGR5 cAMP production assay (hTGR5-CHO cells, DiscoveRx cAMP XS+ kit); type: cell-based; settings: luminescent cAMP assay, read-out: Human TGR5 Lum. cAMP Activity (EC50)
T1 construct: host or cells: CHO-K1 (hTGR5-CHO)
T1 sequence (Q8TDU6 1-330): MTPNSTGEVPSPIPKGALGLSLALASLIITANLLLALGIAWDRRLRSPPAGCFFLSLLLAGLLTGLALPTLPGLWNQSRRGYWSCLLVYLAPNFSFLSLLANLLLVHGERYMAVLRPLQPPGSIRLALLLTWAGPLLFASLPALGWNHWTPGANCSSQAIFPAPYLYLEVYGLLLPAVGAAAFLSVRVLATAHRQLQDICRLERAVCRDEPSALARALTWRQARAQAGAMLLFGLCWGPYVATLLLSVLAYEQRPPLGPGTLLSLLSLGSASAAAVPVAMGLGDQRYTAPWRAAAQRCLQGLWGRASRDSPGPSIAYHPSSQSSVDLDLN
Outline: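 EC50 values come from luminescent enzyme-complementation cAMP detection, read after overnight incubation. Beforehand, hTGR5-expressing CHO-K1 cells with IBMX and anti-cAMP antibody were exposed 1 h at room temperature to serially diluted (half-log) compounds.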

[2] = target: T2, mouse TGR5 receptor (Mus musculus, UniProt Q80SS6); experiment: Mouse TGR5 HTRF cAMP production assay (HEK293-EBNA cells, Cisbio cAMP HiRange kit); type: cell-based; settings: HEK293-EBNA cells overexpressing mouse TGR5, HTRF cAMP assay
T2 construct: host or cells: HEK293-EBNA (293 c18, ATCC CRL10852)
T2 sequence (Q80SS6 1-329): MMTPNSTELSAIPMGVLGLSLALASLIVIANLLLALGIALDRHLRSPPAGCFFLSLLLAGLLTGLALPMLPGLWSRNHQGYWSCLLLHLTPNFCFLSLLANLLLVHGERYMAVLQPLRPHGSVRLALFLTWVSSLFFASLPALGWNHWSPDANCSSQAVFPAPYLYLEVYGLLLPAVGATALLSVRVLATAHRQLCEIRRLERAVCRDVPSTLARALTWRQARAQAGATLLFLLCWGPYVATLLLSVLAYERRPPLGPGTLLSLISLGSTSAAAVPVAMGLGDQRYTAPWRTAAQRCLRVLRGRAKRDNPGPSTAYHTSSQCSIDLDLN
Outline: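 cAMP accumulation was read by competitive HTRF after 1 h room-temperature compound treatment, with a further 1 h conjugate incubation. Cells were mouse TGR5-overexpressing HEK293-EBNA in serum-free DMEM plus 500 μM IBMX. Compounds ran as 12-point half-log series in duplicate, and EC50 values were reported.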

EC50 [1]	EC50 [2]	Structure (SMILES)
< 100 nM	< 100 nM	N#Cc1ccc(CCNC(=O)[C@@H]2CCCN2c2cc(N3CCC(CCC(=O)NCCS(=O)(=O)O)CC3)nc(C(F)(F)F)n2)cc1 [Compound 56, (S)-2-(3-(1-(6-(2-((4-cyanophenethyl)carbamoyl)pyrrolidin-1-yl)-2-(trifluoromethyl)pyrimidin-4-yl)piperidin-4-yl)propanamido)ethanesulfonic acid]
< 100 nM	< 100 nM	O=C(O)CC[C@@H](NC(=O)CCCC1CCN(c2cc(N3CC[C@H]3C(=O)NCCc3ccc(C(F)(F)F)cc3)nc(C(F)(F)F)n2)CC1)C(=O)O [Compound 294, (R)-2-(4-(1-(2-(trifluoromethyl)-6-((S)-2-((4-(trifluoromethyl)-phenethyl)carbamoyl)azetidin-1-yl)pyrimidin-4-yl)piperidin-4-yl)butanamido)pentanedioic acid]
< 100 nM	< 100 nM	N#Cc1ccc(CCNC(=O)[C@@H]2CCCN2c2cc(N3CCC(CCCC(=O)N[C@@H](CCCNC(=N)N)C(=O)N[C@@H](CCCNC(=N)N)C(=O)O)CC3)cc(C(F)(F)F)n2)cc1 [Compound 202, (S)-2-((S)-2-(4-(1-(2-((S)-2-((4-cyanophenethyl)carbamoyl)pyrrolidin-1-yl)-6-(trifluoromethyl)pyridin-4-yl)piperidin-4-yl)butanamido)-5-guanidinopentanamido)-5-guanidinopentanoic acid]
< 100 nM	< 100 nM	O=C(O)CCCC1CCN(c2cc(N3CCC[C@@H](C(=O)NCCc4ccc(C(F)(F)F)cc4)C3)nc(C(F)(F)F)n2)CC1 [Compound 330, (R)-4-(1-(2-(trifluoromethyl)-6-(3-((4-(trifluoromethyl)phenethyl)carbamoyl)piperidin-1-yl)pyrimidin-4-yl)piperidin-4-yl)butanoic acid]
< 100 nM	< 100 nM	N[C@@H](CS(=O)(=O)O)C(=O)NCCC1CCN(c2cc(N3CC[C@H]3C(=O)NCCc3ccc(C(F)(F)F)cc3)nc(C(F)(F)F)n2)CC1 [Compound 278, (R)-2-amino-3-oxo-3-((2-(1-(2-(trifluoromethyl)-6-((S)-2-((4-(trifluoromethyl)-phenethyl)carbamoyl)azetidin-1-yl)pyrimidin-4-yl)piperidin-4-yl)ethyl)amino)-propane-1-sulfonic acid]
< 100 nM	< 100 nM	N#Cc1ccc(CCNC(=O)[C@@H]2CCCN2c2cc(N3CCC(CCCC(=O)NCCS(=O)(=O)O)CC3)nc(C(F)(F)F)n2)cc1 [Compound 61, (S)-2-(4-(1-(6-(2-((4-cyanophenethyl)carbamoyl)pyrrolidin-1-yl)-2-(trifluoromethyl)pyrimidin-4-yl)-piperidin-4-yl)butanamido)ethanesulfonic acid]
< 100 nM	< 100 nM	N#Cc1ccc(CCNC(=O)[C@@H]2CCN2c2cc(N3CCC(CCNC(=O)NCCOCCNC(=O)NCCC(=O)O)CC3)nc(C(F)(F)F)n2)cc1 [Compound 360, (S)-1-(1-(6-(2-((4-cyanophenethyl)carbamoyl)azetidin-1-yl)-2-(trifluoromethyl)pyrimidin-4-yl)piperidin-4-yl)-4,12-dioxo-8-oxa-3,5,11,13-tetraazahexadecan-16-oic acid]
< 100 nM	< 100 nM	N#Cc1ccc(CCNC(=O)[C@@H]2CCCN2c2cc(N3CCC(CCCC(=O)NCCCS(=O)(=O)O)CC3)nc(C(F)(F)F)n2)cc1 [Compound 63, (S)-3-(4-(1-(6-(2-((4-cyanophenethyl)carbamoyl)pyrrolidin-1-yl)-2-(trifluoromethyl)pyrimidin-4-yl)-piperidin-4-yl)butanamido)propane-1-sulfonic acid]
< 100 nM	< 100 nM	N#Cc1ccc(CCNC(=O)[C@@H]2CCCN2c2cc(N3CCC(CCCNC(=O)NCCS(N)(=O)=O)CC3)nc(C(F)(F)F)n2)cc1 [Compound 120, (S)-N-(4-cyanophenethyl)-1-(6-(4-(3-(3-(2-sulfamoylethyl)ureido)propyl)piperidin-1-yl)-2-(trifluoromethyl)pyrimidin-4-yl)pyrrolidine-2-carboxamide]
< 100 nM	< 100 nM	N#Cc1ccc(CCNC(=O)[C@@H]2CCN2c2cc(N3CCC(CCNC(=N)N)CC3)nc(C(F)(F)F)n2)cc1 [Compound 285, (S)-N-(4-cyanophenethyl)-1-(6-(4-(2-guanidinoethyl)piperidin-1-yl)-2-(trifluoromethyl)pyrimidin-4-yl)azetidine-2-carboxamide]
< 100 nM	< 100 nM	COc1cc(C(F)(F)F)ccc1CCNC(=O)[C@@H]1CCCN1c1cc(N2CCC(CCCC(=O)O)CC2)nc(C(F)(F)F)n1 [Compound 34]
< 100 nM	< 100 nM	N#Cc1ccc(CCNC(=O)[C@@H]2CCN2c2cc(N3CCC(CCCC(=O)NCS(=O)(=O)O)CC3)nc(C(F)(F)F)n2)cc1 [Compound 250, (S)-(4-(1-(6-(2-((4-cyanophenethyl)carbamoyl)azetidin-1-yl)-2-(trifluoromethyl)pyrimidin-4-yl)piperidin-4-yl)butanamido)methanesulfonic acid]
< 100 nM	< 100 nM	O=C(O)CCC1CCN(c2cc(N3CC[C@H]3C(=O)NCCc3ccc(C(F)(F)F)cc3)nc(C(F)(F)F)n2)CC1 [Compound 232, (S)-3-(1-(2-(trifluoromethyl)-6-(2-((4-(trifluoromethyl)phenethyl)carbamoyl)azetidin-1-yl)pyrimidin-4-yl)piperidin-4-yl)propanoic acid]
< 100 nM	< 100 nM	O=C(CCCC1CCN(c2cc(N3CCC[C@H]3C(=O)NCCc3ccc(C(F)(F)F)cc3)nc(C(F)(F)F)n2)CC1)NCCS(=O)(=O)O [Compound 58, (S)-2-(4-(1-(2-(trifluoromethyl)-6-(2-((4-(trifluoromethyl)phenethyl)-carbamoyl)-pyrrolidin-1-yl)-pyrimidin-4-yl)piperidin-4-yl)butanamido)ethanesulfonic acid]
< 100 nM	< 100 nM	N#Cc1ccc(CCNC(=O)[C@@H]2CCCN2c2cc(N3CCC(CCCC(=O)O)CC3)nc(C(F)(F)F)n2)cc1 [Compound 29]
< 100 nM	< 100 nM	N#Cc1ccc(CCNC(=O)[C@@H]2CCN2c2cc(N3CCC(CCCC(=O)NC[C@@H](O)CO)CC3)nc(C(F)(F)F)n2)cc1 [Compound 261, (S)-N-(4-cyanophenethyl)-1-(6-(4-(4-(((R)-2,3-dihydroxypropyl)amino)-4-oxobutyl)piperidin-1-yl)-2-(trifluoromethyl)pyrimidin-4-yl)azetidine-2-carboxamide]
< 100 nM	< 100 nM	N#Cc1ccc(CCNC(=O)[C@@H]2CCN2c2cc(N3CCC(CCCC(=O)NCCCCNC(=N)N)CC3)nc(C(F)(F)F)n2)cc1 [Compound 283, (S)-N-(4-cyanophenethyl)-1-(6-(4-(4-((4-guanidinobutyl)amino)-4-oxobutyl)piperidin-1-yl)-2-(trifluoromethyl)pyrimidin-4-yl)azetidine-2-carboxamide]
< 100 nM	< 100 nM	N#Cc1ccc(CCNC(=O)[C@@H]2CCN2c2cc(N3CCC(CCO)CC3)nc(C(F)(F)F)n2)cc1 [Compound 223, (S)-N-(4-cyanophenethyl)-1-(6-(4-(2-hydroxyethyl)piperidin-1-yl)-2-(trifluoromethyl)pyrimidin-4-yl)azetidine-2-carboxamide]
